Source: ChEMBL document CHEMBL3885881, “DrugMatrix”

Species: Rattus norvegicus
Experiment: DrugMatrix - Regimen: Daily Repeat
Type: toxicity, organism-based, Sprague-Dawley
Design: regimen Daily Repeat, gender Male, age 6-8 weeks
Settings: in vivo, po, route oral GAVAGE, […]; for ABSOLUTE BASOPHIL / ABSOLUTE EOSINOPHIL / ABSOLUTE LYMPHOCYTE / ABSOLUTE MONOCYTE / ABSOLUTE SEGMENTED NEUTROPHIL / BASOPHIL / EOSINOPHIL / ERYTHROCYTE COUNT / HEMATOCRIT / HEMOGLOBIN / LEUKOCYTE COUNT / LYMPHOCYTE / MEAN CORPUSCULAR HEMOGLOBIN / MEAN CORPUSCULAR HEMOGLOBIN CONCENTRATION / MEAN CORPUSCULAR VOLUME / MONOCYTE / NEUTROPHIL / NUCLEATED RED BLOOD CELLS / PLATELET COUNT: tissue Blood; for ALANINE AMINOTRANSFERASE / ALBUMIN / ALKALINE PHOSPHATASE / ASPARTATE AMINOTRANSFERASE / BLOOD UREA NITROGEN / CARBON DIOXIDE / CHLORIDE / CHOLESTEROL / CREATINE PHOSPHOKINASE / CREATININE / GLUCOSE / LACTATE DEHYDROGENASE / LIPASE / PHOSPHORUS / POTASSIUM / SODIUM / TOTAL BILIRUBIN / TOTAL PROTEIN / URIC ACID: tissue Plasma
[1] = 0 mg/kg, 72 h, dose level Control, time 3 day
[2] = 0 mg/kg, 120 h, dose level Control, time 5 day
[3] = 100 mg/kg, 72 h, dose level Low, time 3 day

CCCC[C@@H](CC)COC(=O)c1ccccc1C(=O)OC[C@@H](CC)CCCC [BIS(2-ETHYLHEXYL)PHTHALATE]
ABSOLUTE BASOPHIL [1]: 0 CELLS/uL | ABSOLUTE EOSINOPHIL [1]: 13.67 CELLS/uL | ABSOLUTE LYMPHOCYTE [1]: 10069.5 CELLS/uL | ABSOLUTE MONOCYTE [1]: 50 CELLS/uL | ABSOLUTE SEGMENTED NEUTROPHIL [1]: 516.83 CELLS/uL | BASOPHIL [1]: 0% | EOSINOPHIL [1]: 0.17% | ERYTHROCYTE COUNT [1]: 5.44 x10E6/uL | HEMATOCRIT [1]: 33.88% | HEMOGLOBIN [1]: 13.23 G/DL | LEUKOCYTE COUNT [1]: 10.65 x10E3/uL | LYMPHOCYTE [1]: 94.67% | MEAN CORPUSCULAR HEMOGLOBIN [1]: 24.37 pg | MEAN CORPUSCULAR HEMOGLOBIN CONCENTRATION [1]: 39.05 G/DL | MEAN CORPUSCULAR VOLUME [1]: 62.38 fL | MONOCYTE [1]: 0.67% | NEUTROPHIL [1]: 4.5% | NUCLEATED RED BLOOD CELLS [1]: 0.33 /100WBC | PLATELET COUNT [1]: 414.5 x10E3/uL | ALANINE AMINOTRANSFERASE [1]: 72 u/L | ALBUMIN [1]: 3.75 G/DL | ALKALINE PHOSPHATASE [1]: 375 u/L | ASPARTATE AMINOTRANSFERASE [1]: 87.5 u/L | BLOOD UREA NITROGEN [1]: 14 mg/dL | CARBON DIOXIDE [1]: 27.5 mmol/L | CHLORIDE [1]: 95.83 MEQ/L | CHOLESTEROL [1]: 68.5 mg/dL | CREATINE PHOSPHOKINASE [1]: 284.33 u/L | CREATININE [1]: 0.16 mg/dL | GLUCOSE [1]: 156.67 mg/dL | LACTATE DEHYDROGENASE [1]: 101.83 u/L | LIPASE [1]: 9.67 u/L | PHOSPHORUS [1]: 10.33 mg/dL | POTASSIUM [1]: 5.22 MEQ/L | SODIUM [1]: 137.67 MEQ/L | TOTAL BILIRUBIN [1]: 0.13 mg/dL | TOTAL PROTEIN [1]: 5.43 G/DL | URIC ACID [1]: 0.8 mg/dL | ABSOLUTE BASOPHIL [2]: 0 CELLS/uL | ABSOLUTE EOSINOPHIL [2]: 20.67 CELLS/uL | ABSOLUTE LYMPHOCYTE [2]: 11518.33 CELLS/uL | ABSOLUTE MONOCYTE [2]: 47 CELLS/uL | ABSOLUTE SEGMENTED NEUTROPHIL [2]: 614 CELLS/uL | BASOPHIL [2]: 0% | EOSINOPHIL [2]: 0.17% | ERYTHROCYTE COUNT [2]: 5.61 x10E6/uL | HEMATOCRIT [2]: 34.25% | HEMOGLOBIN [2]: 13.38 G/DL | LEUKOCYTE COUNT [2]: 12.2 x10E3/uL | LYMPHOCYTE [2]: 94.33% | MEAN CORPUSCULAR HEMOGLOBIN [2]: 23.83 pg | MEAN CORPUSCULAR HEMOGLOBIN CONCENTRATION [2]: 39.08 G/DL | MEAN CORPUSCULAR VOLUME [2]: 61.03 fL | MONOCYTE [2]: 0.33% | NEUTROPHIL [2]: 5.17% | NUCLEATED RED BLOOD CELLS [2]: 0 /100WBC | PLATELET COUNT [2]: 941.83 x10E3/uL | ALANINE AMINOTRANSFERASE [2]: 68.83 u/L | ALBUMIN [2]: 4.12 G/DL | ALKALINE PHOSPHATASE [2]: 492.67 u/L | ASPARTATE AMINOTRANSFERASE [2]: 83.33 u/L | BLOOD UREA NITROGEN [2]: 14 mg/dL | CARBON DIOXIDE [2]: 37 mmol/L | CHLORIDE [2]: 98.67 MEQ/L | CHOLESTEROL [2]: 56.5 mg/dL | CREATINE PHOSPHOKINASE [2]: 167.33 u/L | CREATININE [2]: 0.17 mg/dL | GLUCOSE [2]: 157.5 mg/dL | LACTATE DEHYDROGENASE [2]: 104.83 u/L | LIPASE [2]: 10 u/L | PHOSPHORUS [2]: 10.43 mg/dL | POTASSIUM [2]: 5.46 MEQ/L | SODIUM [2]: 143.87 MEQ/L | TOTAL BILIRUBIN [2]: 0.17 mg/dL | TOTAL PROTEIN [2]: 5.72 G/DL | URIC ACID [2]: 0.85 mg/dL | ABSOLUTE BASOPHIL [3]: 0 CELLS/uL | ABSOLUTE EOSINOPHIL [3]: 23 CELLS/uL | ABSOLUTE LYMPHOCYTE [3]: 7479.67 CELLS/uL | ABSOLUTE MONOCYTE [3]: 44.67 CELLS/uL | ABSOLUTE SEGMENTED NEUTROPHIL [3]: 819.33 CELLS/uL | BASOPHIL [3]: 0% | EOSINOPHIL [3]: 0.33% | ERYTHROCYTE COUNT [3]: 5.6 x10E6/uL | HEMATOCRIT [3]: 35.03% | HEMOGLOBIN [3]: 13.73 G/DL | LEUKOCYTE COUNT [3]: 8.37 x10E3/uL | LYMPHOCYTE [3]: 89% | MEAN CORPUSCULAR HEMOGLOBIN [3]: 24.5 pg | MEAN CORPUSCULAR HEMOGLOBIN CONCENTRATION [3]: 39.17 G/DL | MEAN CORPUSCULAR VOLUME [3]: 62.6 fL | MONOCYTE [3]: 0.67% | NEUTROPHIL [3]: 10% | NUCLEATED RED BLOOD CELLS [3]: 0 /100WBC | PLATELET COUNT [3]: 750.33 x10E3/uL | ALANINE AMINOTRANSFERASE [3]: 89.33 u/L | ALBUMIN [3]: 3.97 G/DL | ALKALINE PHOSPHATASE [3]: 408.33 u/L | ASPARTATE AMINOTRANSFERASE [3]: 88.67 u/L | BLOOD UREA NITROGEN [3]: 14 mg/dL | CARBON DIOXIDE [3]: 26.67 mmol/L | CHLORIDE [3]: 96 MEQ/L | CHOLESTEROL [3]: 60 mg/dL | CREATINE PHOSPHOKINASE [3]: 210.67 u/L | CREATININE [3]: 0.11 mg/dL | GLUCOSE [3]: 148.33 mg/dL | LACTATE DEHYDROGENASE [3]: 81 u/L | LIPASE [3]: 10.33 u/L | PHOSPHORUS [3]: 10 mg/dL | POTASSIUM [3]: 5.11 MEQ/L | SODIUM [3]: 138.1 MEQ/L | TOTAL BILIRUBIN [3]: 0.17 mg/dL | TOTAL PROTEIN [3]: 5.5 G/DL | URIC ACID [3]: 0.63 mg/dL
